# Earlier results as cited in patent US20040096420A1, “Compositions and methods for treating baldness” (priority 2000, published 2004).
# Tested on: genetic hair loss
# Conditions: dosages from 75 to 100 mg per day; Rushton and Ramsay, 1992; Rushton et al. 1991
structure (smiles),measurement,value
CC(=O)S[C@@H]1CC2=CC(=O)CC[C@]2(C)[C@H]2CC[C@@]3(C)[C@@H](CC[C@@]34CCC(=O)O4)[C@H]12 [spironolactone],benefit in hair loss,some benefit
